According to patent US12077503B2, “Substituted cyclic amides and their use as herbicides” (FMC CORPORATION, priority 2015, dated 2024):

Legend:
Type in all cases: in vivo
[1] = tested on: barnyardgrass (Echinochloa crus-galli); assay: Test G Pre-Emergence Protocol; conditions: Echinochloa crus-galli, pre-emergence, 312 h, evaluated after 13 days; for pest or weed control at 15.625 g/ha: 15.625 g ai/ha; for pest or weed control at 15.625 g/ha / pest or weed control at 250 g/ha: read-out: Barnyardgrass damage rating (100=total damage to plant; 0=no damage to plant); for pest or weed control at 62.5 g/ha: 62.5 g ai/ha, 100=total damage to plant, 0=no damage to plant, read-out: Barnyardgrass damage rating; for pest or weed control at 250 g/ha: 250 g ai/ha
Summary of the method: (§1)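 Seeds were sown in standard soil and kept one day in a glasshouse (24/16° C day/night, 14 h light, 65% humidity), then sprayed with compound in acetone/water (50:50) containing 0.5% Tween 20 at 15.625, 62.5 or 250 g/ha. Damage was scored after 13 days (0 = none, 100 = total).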

[2] = tested on: corn (Zea mays); assay: Test G Pre-Emergence Protocol; conditions: Zea mays, pre-emergence, 312 h, evaluated after 13 days; for plant injury at 15.625 g/ha: 15.625 g ai/ha; for plant injury at 15.625 g/ha / plant injury at 250 g/ha: read-out: Corn damage rating (100=total damage to plant; 0=no damage to plant); for plant injury at 62.5 g/ha: 62.5 g ai/ha, 100=total damage to plant, 0=no damage to plant, read-out: Corn damage rating; for plant injury at 250 g/ha: 250 g ai/ha
Summary of the method: as §1

[3] = tested on: giant foxtail (Setaria faberi); assay: Test G Pre-Emergence Protocol; conditions: Setaria faberi, pre-emergence, 312 h, evaluated after 13 days; for pest or weed control at 15.625 g/ha: 15.625 g ai/ha; for pest or weed control at 15.625 g/ha / pest or weed control at 250 g/ha: read-out: Foxtail, Giant damage rating (100=total damage to plant; 0=no damage to plant); for pest or weed control at 62.5 g/ha: 62.5 g ai/ha, 100=total damage to plant, 0=no damage to plant, read-out: Foxtail, Giant damage rating; for pest or weed control at 250 g/ha: 250 g ai/ha
Summary of the method: as §1

[4] = tested on: ivy-leaved morning glory (Ipomoea hederacea); assay: Test G Pre-Emergence Protocol; conditions: Ipomoea, pre-emergence, 312 h, evaluated after 13 days; for pest or weed control at 15.625 g/ha: 15.625 g ai/ha; for pest or weed control at 15.625 g/ha / pest or weed control at 250 g/ha: read-out: Morningglory, Ivy-leaved damage rating (100=total damage to plant; 0=no damage to plant); for pest or weed control at 62.5 g/ha: 62.5 g ai/ha, 100=total damage to plant, 0=no damage to plant, read-out: Morningglory, Ivy-leaved damage rating; for pest or weed control at 250 g/ha: 250 g ai/ha
Summary of the method: as §1

[5] = tested on: redroot pigweed (Amaranthus retroflexus); assay: Test G Pre-Emergence Protocol; conditions: Amaranthus retroflexus, pre-emergence, 312 h, evaluated after 13 days; for pest or weed control at 15.625 g/ha: 15.625 g ai/ha; for pest or weed control at 15.625 g/ha / pest or weed control at 250 g/ha: read-out: Pigweed, Redroot damage rating (100=total damage to plant; 0=no damage to plant); for pest or weed control at 62.5 g/ha: 62.5 g ai/ha, 100=total damage to plant, 0=no damage to plant, read-out: Pigweed, Redroot damage rating; for pest or weed control at 250 g/ha: 250 g ai/ha
Summary of the method: as §1

[6] = tested on: velvetleaf (Abutilon theophrasti); assay: Test G Pre-Emergence Protocol; conditions: Abutilon theophrasti, pre-emergence, 312 h, evaluated after 13 days; for pest or weed control at 15.625 g/ha: 15.625 g ai/ha; for pest or weed control at 15.625 g/ha / pest or weed control at 250 g/ha: read-out: Velvetleaf damage rating (100=total damage to plant; 0=no damage to plant); for pest or weed control at 62.5 g/ha: 62.5 g ai/ha, 100=total damage to plant, 0=no damage to plant, read-out: Velvetleaf damage rating; for pest or weed control at 250 g/ha: 250 g ai/ha
Summary of the method: as §1

[7] = tested on: barnyardgrass (Echinochloa crus-galli); assay: Test G Post-Emergence Protocol; conditions: Echinochloa crus-galli, post-emergence, 312 h, read-out: Barnyardgrass damage rating; for pest or weed control at 15.625 g/ha: 15.625 g ai/ha, evaluated after 13 days (100=total damage to plant; 0=no damage to plant); for pest or weed control at 62.5 g/ha: 62.5 g ai/ha; for pest or weed control at 62.5 g/ha / pest or weed control at 250 g/ha: evaluated after 13 days, 100=total damage to plant, 0=no damage to plant; for pest or weed control at 250 g/ha: 250 g ai/ha
Summary of the method: (§2)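 Pot-grown seedlings, 8 days old, raised in a glasshouse at 24/16 °C day/night with 14 h light and 65% humidity, were sprayed post-emergence with test compound in acetone/water (50:50) plus 0.5% Tween 20 at 15.625, 62.5 or 250 g/ha. Damage was scored visually 13 days later on a 0–100 scale (100 = total damage).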

[8] = tested on: corn (Zea mays); assay: Test G Post-Emergence Protocol; conditions: Zea mays, post-emergence, 312 h, read-out: Corn damage rating; for plant injury at 15.625 g/ha: 15.625 g ai/ha, evaluated after 13 days (100=total damage to plant; 0=no damage to plant); for plant injury at 62.5 g/ha: 62.5 g ai/ha; for plant injury at 62.5 g/ha / plant injury at 250 g/ha: evaluated after 13 days, 100=total damage to plant, 0=no damage to plant; for plant injury at 250 g/ha: 250 g ai/ha
Summary of the method: as §2

[9] = tested on: giant foxtail (Setaria faberi); assay: Test G Post-Emergence Protocol; conditions: Setaria faberi, post-emergence, 312 h, read-out: Foxtail, Giant damage rating; for pest or weed control at 15.625 g/ha: 15.625 g ai/ha, evaluated after 13 days (100=total damage to plant; 0=no damage to plant); for pest or weed control at 62.5 g/ha: 62.5 g ai/ha; for pest or weed control at 62.5 g/ha / pest or weed control at 250 g/ha: evaluated after 13 days, 100=total damage to plant, 0=no damage to plant; for pest or weed control at 250 g/ha: 250 g ai/ha
Summary of the method: as §2

[10] = tested on: ivy-leaved morning glory (Ipomoea hederacea); assay: Test G Post-Emergence Protocol; conditions: Ipomoea, post-emergence, 312 h, read-out: Morningglory, Ivy-leaved damage rating; for pest or weed control at 15.625 g/ha: 15.625 g ai/ha, evaluated after 13 days (100=total damage to plant; 0=no damage to plant); for pest or weed control at 62.5 g/ha: 62.5 g ai/ha; for pest or weed control at 62.5 g/ha / pest or weed control at 250 g/ha: evaluated after 13 days, 100=total damage to plant, 0=no damage to plant; for pest or weed control at 250 g/ha: 250 g ai/ha
Summary of the method: as §2

[11] = tested on: redroot pigweed (Amaranthus retroflexus); assay: Test G Post-Emergence Protocol; conditions: Amaranthus retroflexus, post-emergence, 312 h, read-out: Pigweed, Redroot damage rating; for pest or weed control at 15.625 g/ha: 15.625 g ai/ha, evaluated after 13 days (100=total damage to plant; 0=no damage to plant); for pest or weed control at 62.5 g/ha: 62.5 g ai/ha; for pest or weed control at 62.5 g/ha / pest or weed control at 250 g/ha: evaluated after 13 days, 100=total damage to plant, 0=no damage to plant; for pest or weed control at 250 g/ha: 250 g ai/ha
Summary of the method: as §2

[12] = tested on: velvetleaf (Abutilon theophrasti); assay: Test G Post-Emergence Protocol; conditions: Abutilon theophrasti, post-emergence, 312 h, read-out: Velvetleaf damage rating; for pest or weed control at 15.625 g/ha: 15.625 g ai/ha, evaluated after 13 days (100=total damage to plant; 0=no damage to plant); for pest or weed control at 62.5 g/ha: 62.5 g ai/ha; for pest or weed control at 62.5 g/ha / pest or weed control at 250 g/ha: evaluated after 13 days, 100=total damage to plant, 0=no damage to plant; for pest or weed control at 250 g/ha: 250 g ai/ha
Summary of the method: as §2

| SMILES | pest or weed control at 15.625 g/ha [1] | pest or weed control at 62.5 g/ha [1] | pest or weed control at 250 g/ha [1] | plant injury at 15.625 g/ha [2] | plant injury at 62.5 g/ha [2] | plant injury at 250 g/ha [2] | pest or weed control at 15.625 g/ha [3] | pest or weed control at 62.5 g/ha [3] | pest or weed control at 250 g/ha [3] | pest or weed control at 15.625 g/ha [4] | pest or weed control at 62.5 g/ha [4] | pest or weed control at 250 g/ha [4] | pest or weed control at 15.625 g/ha [5] | pest or weed control at 62.5 g/ha [5] | pest or weed control at 250 g/ha [5] | pest or weed control at 15.625 g/ha [6] | pest or weed control at 62.5 g/ha [6] | pest or weed control at 250 g/ha [6] | pest or weed control at 15.625 g/ha [7] | pest or weed control at 62.5 g/ha [7] | other results |
| --- | --- | --- | --- | --- | --- | --- | --- | --- | --- | --- | --- | --- | --- | --- | --- | --- | --- | --- | --- | --- | --- |
| CCCOc1cc(OC(F)(F)F)cc(C2CN(C)C(=O)C2C(=O)Nc2cccc(F)c2F)c1 (stereo not drawn) [Compound 1693] | 0% | 70% | 70% | 0% | 30% | 40% | 0% | 50% | 70% | 0% | 20% | 20% | 0% | 0% | 10% | 0% | 0% | 10% | 0% | 30% | pest or weed control at 250 g/ha [7]: 80%; plant injury at 15.625 g/ha [8]: 0%; plant injury at 62.5 g/ha [8]: 10%; plant injury at 250 g/ha [8]: 70%; pest or weed control at 15.625 g/ha [9]: 0%; pest or weed control at 62.5 g/ha [9]: 60%; pest or weed control at 250 g/ha [9]: 80%; pest or weed control at 15.625 g/ha [10]: 0%; pest or weed control at 62.5 g/ha [10]: 50%; pest or weed control at 250 g/ha [10]: 60%; pest or weed control at 15.625 g/ha [11]: 20%; pest or weed control at 62.5 g/ha [11]: 50%; pest or weed control at 250 g/ha [11]: 60%; pest or weed control at 15.625 g/ha [12]: 0%; pest or weed control at 62.5 g/ha [12]: 30%; pest or weed control at 250 g/ha [12]: 20% |
| COc1cc(OC(F)(F)F)cc(C2CN(C)C(=O)C2C(=O)Nc2cccc(F)c2F)c1 (stereo not drawn) [Compound 1697] | 40% | 70% | 80% | 0% | 40% | 50% | 70% | 80% | 80% | 0% | 0% | 0% | 0% | 0% | 20% | 0% | 0% | 20% | 60% | 70% | pest or weed control at 250 g/ha [7]: 90%; plant injury at 15.625 g/ha [8]: 10%; plant injury at 62.5 g/ha [8]: 80%; plant injury at 250 g/ha [8]: 80%; pest or weed control at 15.625 g/ha [9]: 80%; pest or weed control at 62.5 g/ha [9]: 80%; pest or weed control at 250 g/ha [9]: 80%; pest or weed control at 15.625 g/ha [10]: 30%; pest or weed control at 62.5 g/ha [10]: 60%; pest or weed control at 250 g/ha [10]: 60%; pest or weed control at 15.625 g/ha [11]: 20%; pest or weed control at 62.5 g/ha [11]: 60%; pest or weed control at 250 g/ha [11]: 70%; pest or weed control at 15.625 g/ha [12]: 0%; pest or weed control at 62.5 g/ha [12]: 30%; pest or weed control at 250 g/ha [12]: 30% |
| COc1cc(F)cc(C2CN(C)C(=O)C2C(=O)Nc2cccc(F)c2F)c1 (stereo not drawn) [Compound 1699] | 60% | 80% | 90% | 0% | 30% | 70% | 80% | 90% | 90% | 0% | 10% | 70% | 0% | 0% | 0% | 0% | 0% | 0% | 60% | 80% | pest or weed control at 250 g/ha [7]: 90%; plant injury at 15.625 g/ha [8]: 0%; plant injury at 62.5 g/ha [8]: 30%; plant injury at 250 g/ha [8]: 70%; pest or weed control at 15.625 g/ha [9]: 80%; pest or weed control at 62.5 g/ha [9]: 80%; pest or weed control at 250 g/ha [9]: 80%; pest or weed control at 15.625 g/ha [10]: 10%; pest or weed control at 62.5 g/ha [10]: 30%; pest or weed control at 250 g/ha [10]: 70%; pest or weed control at 15.625 g/ha [11]: 0%; pest or weed control at 62.5 g/ha [11]: 0%; pest or weed control at 250 g/ha [11]: 30%; pest or weed control at 15.625 g/ha [12]: 0%; pest or weed control at 62.5 g/ha [12]: 0%; pest or weed control at 250 g/ha [12]: 30% |
